The target in series [1] is T1, PncA (Mycobacterium tuberculosis, UniProt I6XD65). The experiment in a line: biochemical. The series is classed as biochemical.
Series [2] deals with Mycobacterium tuberculosis PncA (MtPncA) (Mycobacterium tuberculosis, UniProt I6XD65).
The target in series [3] is T1, PncA. The experiment in a line: Inactivation of PncA by iodoacetamide. Particulars: concentration and pH dependent loss of activity. It is filed as biochemical.
Series [4] has as its target T1, PncA. It is filed as biochemical.
A further series deals with NC(=O)c1cnccn1. As to the kind of experiment: purified protein, by the assay type. Conditions: pH 7.5; 25.0 °C.

Read-outs that look alike come from different tables or passages of the source.

T1 sequence (I6XD65 whole entry): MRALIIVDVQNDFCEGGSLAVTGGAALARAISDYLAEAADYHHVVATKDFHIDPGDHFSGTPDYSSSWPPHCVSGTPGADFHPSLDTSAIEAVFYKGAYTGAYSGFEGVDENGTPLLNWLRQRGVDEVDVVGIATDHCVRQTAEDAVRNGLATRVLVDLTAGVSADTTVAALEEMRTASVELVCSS
Sequence of Mycobacterium tuberculosis PncA (MtPncA) (I6XD65 whole entry): as above

With `O=Cc1cccnc1` [3-pyridine carboxaldehyde], the mode of inhibition result at PncA [1] is “competitive inhibitor”.

With `N#Cc1cccnc1` [3-pyridinecarbonitrile], the mode of inhibition result on PncA [1] is on record as “reversible, competitive inhibitor”. On PncA [1] (Ki, reversible, competitive inhibitor), the Ki (as a rule, the equilibrium dissociation constant of an inhibitor or competing ligand from its target) is about 100 µM. In addition, the “enzymatic activity with the compound as substrate” value (“enzymatic activity” below) in series [2] is “Neither compound is a substrate”.

Consider `NC(=O)c1ccc(N)nc1` [6-aminonicotinamide], for which the “enzymatic activity” value in series [2] is “did not observe any enzymatic activity”.

Turning to `O=C(O)CN(CCN(CC(=O)O)CC(=O)O)CC(=O)O` [EDTA, ethylenediaminetetraacetic acid], the “effect of addition on MtPncA activity” value in series [2] was “neither the addition of 5 mM EDTA, nor reported inhibitory metals (Zn^+2 for MtPncA) resulted in any decrease in activity”.

Consider `NC(=O)c1ccccc1` [benzamide], for which the “enzymatic activity” value in series [2] was “did not observe any enzymatic activity”.

On to `NC(=O)CI` [iodoacetamide], for which the “inactivation of PncA” value at PncA [3] is reported as “inactivator of PncA”.

In the case of `N#Cc1cnccn1` [pyrazinecarbonitrile], on PncA [4], the second-order inactivation constant (kinact/KI) (in general, the second-order rate constant of inactivation) was 975 M⁻¹ s⁻¹ and the mode of inhibition result was “irreversible inactivator”. The kinact entry on PncA [4] (pH 7.5) is listed as “Kinact = 0.06 ± 0.01 sec^−1 Ki = 61 ± 3 μM”. The KI (inactivation) on PncA [4] (read-out: Ki (inactivation), pH 7.5) came out at 61 µM. Besides, the “enzymatic activity” value in series [2] was “Neither compound is a substrate”.

Regarding (Mycobacterium tuberculosis H37Rv), in the series on NC(=O)c1cnccn1, the Km – broadly, the concentration of substrate that gives half-maximal velocity – came out at 300 ± 40 µM; the kcat (usually the number of substrate molecules converted per active site and unit of time at saturation) came out at 3.8 ± 0.1 s⁻¹; the kcat/Km (usually the second-order rate constant that governs catalysis at low substrate concentration) stood at 13000 M⁻¹ s⁻¹.

The record behind these values is article PMC3029496 (Biochemistry, 2010).
